Results: patent publication US11759495B2, “Upregulation of therapeutic T regulatory cells and suppression of suicidal ideations in response to inflammation by administration of nutraceutical compositions alone or combined with minocycline” (Therapeutic Solutions International, Inc., priority 2020, dated 2023)
Read-outs that look alike come from different tables or passages of the source.

Assays:
[1] = test system: primary peritoneal macrophages; settings: cited from earlier work
[2] = test system: LPS-challenged macrophages; settings: 0 to 50 μM, 6 h pre-incubation, LPS 24 h; cited from earlier work
LPS-induced ARDS [3] = settings: cited from earlier work
[4] = test system: lipopolysaccharide-induced inflammatory reactions; settings: cited from earlier work
[5] = test system: sepsis induction with live Escherichia coli / LPS O111:B4; settings: cited from earlier work; for concentration of IL-1α: controls 1187.0±278.64
[6] = test system: myocardial ischemia and reperfusion; settings: cited from earlier work
[7] = test system: lethal endotoxemia / lethal sepsis; settings: cited from earlier work
iNOS = settings: cited from earlier work
polymicrobial sepsis [8] = settings: 10 mg/kg intraperitoneally, 72 h after CL2P; cited from earlier work
LPS-induced ARDS [9] = settings: cited from earlier work; remark: listed apart in the source
ulcerative colitis (UC) = settings: cited from earlier work
macrophage foam cells = settings: cited from earlier work
polymicrobial sepsis [10] = settings: 10 mg/kg intraperitoneally at 1 and 6 h after CL2P and every 12 h; cited from earlier work
[11] = rat, in vivo; cited from earlier work
NK cell = assay: Nanostilbene in cancer patients: NK cell activity and interferon gamma; format: in vivo, human; settings: administered in the form of nanostilbene
From the text: Additionally, pterostilbene has shown to inhibit inflammatory cytokines associated with ARDS.

[12] = test system: inflammatory cytokines associated with ARDS; settings: cited from earlier work
[13] = 10 mg/kg intravenously then 10 mg/kg/h infusion

## C[S+]([O-])CCCCN=C=S (stereo not shown) [sulforaphane, 1-isothiocyanato-4-(methylsulfinyl)-butane]
[1]; LPS-stimulated Nrf2 (+/+) macrophages
  HO-1 expression: significantly augmented
[1]; Nrf2 (+/+) macrophages, pretreatment
  LPS-stimulated mRNA expression, protein expression and production of TNF-alpha, IL-1beta, COX-2 and iNOS: potently inhibited
[1]; Nrf2 (-/-) macrophages
  anti-inflammatory effect: attenuated
[2]
  direct reaction with cytokines and NO: neither directly reacted with cytokines, nor with NO
  expression of NO and cytokines: able to prevent
LPS-induced ARDS [3]; 50 mg/kg, ELISA
  serum levels of interleukin-6 (IL-6): significantly decreased
  serum levels of tumor necrosis factor-α (TNF-α): significantly decreased
LPS-induced ARDS [3]; 50 mg/kg, LPS 5 mg/kg 3 days later
  lactate dehydrogenase (LDH) activity: significantly decreased
LPS-induced ARDS [3]; 50 mg/kg, western blot
  cyclooxygenase-2 (COX-2) protein expression: significantly inhibited
  matrix metalloproteinase-9 (MMP-9) protein expression: significantly inhibited
LPS-induced ARDS [3]; 50 mg/kg
  inducible nitric oxide synthase (iNOS) activity: significantly inhibited
  nuclear factor-KB protein expression: significantly decreased
  prostaglandin E2 (PGE2) production: significantly inhibited
  wet-to-dry ratio of the lungs: significantly decreased
LPS-induced ARDS [3]; pre-treatment
  Nrf2/antioxidant response element (ARE) pathway: activated

## CC1=CC(=O)C(C(C)C)=CC1=O [thymoquinone]
[4]
  concentration of nitric oxide: reduced significantly
  lipopolysaccharide-induced inflammatory reactions: suppressed effectively
[5]; 0.75 mg/kg dose
  concentration of IL-1α: 310.8 ± 70.93 pg/mL
[5]; 0.75 mg/kg, controls 5505.2±333.96
  IL-10 levels: 2885.0 ± 553.98 pg/mL
[5]; 1 mg/kg group
  concentration of IL-1α: 428.3 ± 71.32 pg/mL
[5]; P=0.0851
  levels of IL-2: relatively lower levels
[5]; P=0.1817
  levels of TNF-α: relatively lower levels
[5]; mice, thymoquinone intraperitoneal
  mortality reduction: 80-90%
[5]; mouse, in vivo
  renal and hepatic biomarker profiles: improved

## epigallocatechin-3-gallate [EGCG]
[6]; [13]
  myeloperoxidase activity: reduced
  myocardial damage: reduced
[6]; rat, in vivo
  nuclear factor-kB and activator protein-1 DNA binding: reduction
  plasma IL-6 levels: decreased
  plasma creatine phosphokinase levels: decreased
[7]; first dose 24 hours after cecal ligation and puncture
  rescue from lethal sepsis: rescued
[7]; intraperitoneal
  protection against lethal endotoxemia: protected
iNOS; cells cotreated with EGCG and LPS
  NO production: Inhibition
iNOS
  130-kDa protein and 4.5-kb mRNA levels of iNOS: significantly reduced
  disappearance of inhibitor kappaB from cytosolic fraction: blocked
iNOS; electrophoretic mobility shift assay
  activation of nuclear factor-kappaB: blocked
Polymicrobial sepsis [8]
  survival: significantly improved
LPS-induced ARDS [9]; 10 mg/kg ip 1 h before LPS 10 mg/kg ip
  LPS-induced ARDS: attenuated
LPS-induced ARDS [9]; 10 mg/kg ip
  expression of IκB-α: increased
  expression of TLR-4, MyD88, TRIF, and p-p65 in the lung tissue: alleviated
  expression of TNF-α, IL-1f and IL-6 in the lung, serum, and bronchoalveolar lavage fluid: significantly decreased
  expression of p65: had no influence
Ulcerative colitis (UC); 50 and 100 mg/kg/day
  colonic tissue erosion: attenuation
Ulcerative colitis (UC); mouse, in vivo
  HIF-1α and STAT3 protein expression in the colon: decreasing
  plasma levels of IL-10 and TGF-β1: increasing
Ulcerative colitis (UC); plasma
  release of IL-6 and IL-17: reduce
Macrophage foam cells
  TNF-α-induced nuclear factor-κB (NF-κB) activity: inhibition
Macrophage foam cells; pretreatment
  TNF-α-induced downregulation of ABCA1 and decrease in cholesterol efflux to apoA1: attenuated
Polymicrobial sepsis [10]
  hypotension (mean arterial blood pressure): significantly improved

## trans-3,5-dimethoxy-4-hydroxystilbene [pterostilbene]
[11]
  bioavailability: 80%
NK cell
  NK cell activity: increased NK cell activity
  interferon gamma production: increased
[12]
  interleukin-1, interleukin-6, interleukin-8 and TNF-alpha: inhibition
